Test results as given in US9949980B2, “Drugs to prevent HPV infection” (Wisconsin Alumni Research Foundation, priority 2008, dated 2018).
Structures can show the parent of a compound that is named as a salt. Where two headings read alike, the source gives them in different places.

Tests used:
[1] = tested on: HPV16 pseudoviruses; assay: microbe, parasite or virus in culture; format: cell-based; settings: Human papillomavirus 16, HEK-293T, 48 h
Description: (§1) FIG. 1. High throughout screen (HTS) for identifying inhibitors of HPV infection. Shown is a schematic showing basic steps in the HTS. […] Briefly, HPV16 pseudoviruses containing the SEAP reporter genes are analyzed for their ability to infect as judged by the levels of secreted alkaline phosphatase in the tissue culture supernatant (light grey arrows). Cell viability was assessed in parallel on the same wells (dark grey arrows). In the specific HTS carried out in this study, the compounds were added at 3 uM/1% DMSO final concentration (black arrow) 4 hours prior to infection.
(§2) After incubation at 37° C. for 24 hrs, 35 μL of media was removed. […] Cells were incubated at 37° C. for 48 hrs. 2.5 μL of media was collected for SEAP assay using a PHOSPHA-LIGHT chemiluminescent alkaline phosphatase assay (Applied Biosystems). Cell viability was determined using the CellTiter Glo Luminescent Cell Viability Assay™ (Promega).

[2] = in vitro; settings: human, Viability (CelTiter Glow)
Description: as §1, §2

[3] = read-out: Infectivity (SEAP Activity), 3 μM HTS standard concentration, 293T cells, 48 hrs
[4] = read-out: Infectivity vs. viability, 3 μM HTS standard concentration, ratio infectivity/viability

Work on `O=C(NCc1ccccn1)C(=O)Nc1ccc([N+](=O)[O-])cc1` [Compound 6198885, N-(4-nitrophenyl)-N′-(2-pyridinylmethyl)ethanediamide] yielded an activity at 3 µM [1, 3] of 57.5%, an activity at 3 µM [1, 4] of 53.8% and a viability at 52 h, 3 μM [2] of 107%.

With `COC(=O)C1=C(C)NC2=C(C(=O)c3ccccc32)C1c1ccc(OCc2ccc([N+](=O)[O-])cc2)c(Cl)c1` (stereo not drawn) [Compound 6202416, methyl 4-{3-chloro-4-[(4-nitrobenzyl)oxy]phenyl}-2-methyl-5-oxo-4,5-dihydro-1H-indeno[1,2-b]pyridine-3-carboxylat] the activity at 3 µM [1, 3] was 51.4%, the activity at 3 µM [1, 4] was 42% and the viability at 52 h, 3 μM [2] was 123%.

With `CS(=O)(=O)N(CC(=O)Nc1cccc(Br)c1)c1ccc(Cl)cc1` [Compound 6218383, N~1~-(3-bromophenyl)-N~2~-(4-chlorophenyl)-N~2~-(methylsulfonyl)glycinamide] the activity at 3 µM [1, 3] was 47.4%, the activity at 3 µM [1, 4] was 46.9% and the viability at 52 h, 3 μM [2] was 101%.

Work on `CCc1ccccc1N(CC(=O)OC)S(C)(=O)=O` [Compound 6226431, methyl N-(2-ethylphenyl)-N-(methylsulfonyl)glycinate] yielded an activity at 3 µM [1, 3] of 62.8%, an activity at 3 µM [1, 4] of 55.2% and a viability at 52 h, 3 μM [2] of 114%.

`Cc1cccc(C=C2C(=O)NN(c3ccccc3)C2=O)c1` [Compound 6233808, 4-(3-methylbenzylidene)-1-phenyl-3,5-pyrazolidinedione] showed an activity at 3 µM [1, 3] of 58.5%, an activity at 3 µM [1, 4] of 50.2% and a viability at 52 h, 3 μM [2] of 117%.

`CC1CCc2c(sc(NC(=O)c3ccccc3)c2C(N)=O)C1` (stereo not drawn) [Compound 6239347, 2-(benzoylamino)-6-methyl-4,5,6,7-tetrahydro-1-benzothiophene-3-carboxamide] showed an activity at 3 µM [1, 3] of 55.1%, an activity at 3 µM [1, 4] of 40.5% and a viability at 52 h, 3 μM [2] of 136%.

`O=C(NCc1c(Cl)cccc1Oc1ccccc1)Nc1ccc(F)cc1` [HTS 04313, N-(2-chloro-6-phenoxybenzyl)-N′-(4-fluorophenyl)urea] gave an activity at 3 µM [1, 3] of 36.4%, an activity at 3 µM [1, 4] of 42.7% and a viability at 52 h, 3 μM [2] of 85.3%.

For `N#CCCN1CCCN(CCC#N)CCN(CCC#N)CCCN(CCC#N)CC1` [JFD 02931, 3-[4,8,11-tri(2-cyanoethyl)-1,4,8,11-tetraazacyclotetradecanyl]propanenitrile], the activity at 3 µM [1, 3] was 46.7%, the activity at 3 µM [1, 4] was 46.7% and the viability at 52 h, 3 μM [2] was 99.9%.

Work on `O=C(CCSc1ccc(C(F)(F)F)cc1)c1ccco1` [MWP 01152, 1-furan-2-yl-3-[4-(trifluoromethyl)phenyl]sulfanylpropan-1-one] yielded an activity at 3 µM [1, 3] of 57.8%, an activity at 3 µM [1, 4] of 56.1% and a viability at 52 h, 3 μM [2] of 103%.

With `CC(=O)Oc1ccc(OC(C)=O)c2c1C1C=CC2CC1` [NRB 00571, 6-(acetyloxy)tricyclo[6.2.2.0~2,7~]dodeca-2(7),3,5,9-tetraen-3-yl acetate] the activity at 3 µM [1, 3] was 49.3%, the activity at 3 µM [1, 4] was 45.5% and the viability at 52 h, 3 μM [2] was 108%.

`CCNS(=O)(=O)c1ccc(-c2oc3cc(S(=O)(=O)NCC)ccc3c2Cl)cc1` [NRB 00942, 3-chloro-N-ethyl-2-[4-(ethylsulfamoyl)phenyl]-1-benzofuran-6-sulfonamide] gave an activity at 3 µM [1, 3] of 37.7%, an activity at 3 µM [1, 4] of 37.8% and a viability at 52 h, 3 μM [2] of 99.7%.

In the case of `O=C1C(=Cc2ccccc2)CCCC1CN1CCOCC1` (stereo not drawn) [NRB 01540, 2-benzylidene-6-(morpholinomethyl)cyclohexan-1-one hydrochloride], the activity at 3 µM [1, 3] is reported as 50.5%, the activity at 3 µM [1, 4] is reported as 49.9% and the viability at 52 h, 3 μM [2] is reported as 101%.

Work on `Oc1ccccc1C=NNc1nc2c(Cl)cc(Cl)cc2s1` [RF 02710, 2-hydroxybenzaldehyde N-(4,6-dichloro-1,3-benzothiazol-2-yl)hydrazone] yielded an activity at 3 µM [1, 3] of 34.6%, an activity at 3 µM [1, 4] of 36.4% and a viability at 52 h, 3 μM [2] of 94.9%.

With `ON=Cc1ccc(Cl)s1` [SEW 06085, 5-chlorothiophene-2-carbaldehyde oxime] the activity at 3 µM [1, 3] was 54.9%, the activity at 3 µM [1, 4] was 53.2% and the viability at 52 h, 3 μM [2] was 103%.
